Active and inactive are the calls of the source.
Tests used:
[1] = biological target: T1, Acyl-CoA dehydrogenase family member 10 (Homo sapiens, UniProt Q6JQN1)
T1 sequence (Q6JQN1 whole entry): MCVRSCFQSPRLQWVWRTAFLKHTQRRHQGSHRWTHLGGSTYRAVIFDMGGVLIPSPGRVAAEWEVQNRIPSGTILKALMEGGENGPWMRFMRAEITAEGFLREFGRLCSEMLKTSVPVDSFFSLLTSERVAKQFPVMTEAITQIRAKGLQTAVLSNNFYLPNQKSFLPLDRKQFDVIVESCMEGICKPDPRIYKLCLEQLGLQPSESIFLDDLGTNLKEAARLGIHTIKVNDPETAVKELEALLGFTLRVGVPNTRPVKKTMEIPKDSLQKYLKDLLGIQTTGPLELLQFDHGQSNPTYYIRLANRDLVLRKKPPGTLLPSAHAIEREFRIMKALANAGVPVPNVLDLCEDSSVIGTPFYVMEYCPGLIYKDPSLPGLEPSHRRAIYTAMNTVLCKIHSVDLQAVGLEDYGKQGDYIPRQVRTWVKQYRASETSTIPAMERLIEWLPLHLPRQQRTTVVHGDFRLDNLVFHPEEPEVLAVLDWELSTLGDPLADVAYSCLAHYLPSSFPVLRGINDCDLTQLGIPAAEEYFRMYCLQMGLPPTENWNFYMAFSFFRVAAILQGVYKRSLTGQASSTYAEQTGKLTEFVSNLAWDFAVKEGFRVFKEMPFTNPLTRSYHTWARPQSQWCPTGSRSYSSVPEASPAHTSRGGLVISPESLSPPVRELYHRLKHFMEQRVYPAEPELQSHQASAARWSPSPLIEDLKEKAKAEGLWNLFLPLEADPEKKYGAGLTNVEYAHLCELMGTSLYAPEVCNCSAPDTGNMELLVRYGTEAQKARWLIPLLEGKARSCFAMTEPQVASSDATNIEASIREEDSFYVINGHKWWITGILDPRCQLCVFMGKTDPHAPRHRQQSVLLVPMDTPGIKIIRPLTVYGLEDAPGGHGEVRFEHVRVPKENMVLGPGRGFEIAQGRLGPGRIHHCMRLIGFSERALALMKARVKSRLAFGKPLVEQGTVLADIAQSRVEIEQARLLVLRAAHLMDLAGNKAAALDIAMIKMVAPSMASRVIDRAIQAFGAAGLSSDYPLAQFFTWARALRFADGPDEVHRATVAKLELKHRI

[2] = biological target: T2, Serine/threonine-protein kinase A-Raf (Homo sapiens, UniProt P10398)
T2 sequence (P10398 whole entry): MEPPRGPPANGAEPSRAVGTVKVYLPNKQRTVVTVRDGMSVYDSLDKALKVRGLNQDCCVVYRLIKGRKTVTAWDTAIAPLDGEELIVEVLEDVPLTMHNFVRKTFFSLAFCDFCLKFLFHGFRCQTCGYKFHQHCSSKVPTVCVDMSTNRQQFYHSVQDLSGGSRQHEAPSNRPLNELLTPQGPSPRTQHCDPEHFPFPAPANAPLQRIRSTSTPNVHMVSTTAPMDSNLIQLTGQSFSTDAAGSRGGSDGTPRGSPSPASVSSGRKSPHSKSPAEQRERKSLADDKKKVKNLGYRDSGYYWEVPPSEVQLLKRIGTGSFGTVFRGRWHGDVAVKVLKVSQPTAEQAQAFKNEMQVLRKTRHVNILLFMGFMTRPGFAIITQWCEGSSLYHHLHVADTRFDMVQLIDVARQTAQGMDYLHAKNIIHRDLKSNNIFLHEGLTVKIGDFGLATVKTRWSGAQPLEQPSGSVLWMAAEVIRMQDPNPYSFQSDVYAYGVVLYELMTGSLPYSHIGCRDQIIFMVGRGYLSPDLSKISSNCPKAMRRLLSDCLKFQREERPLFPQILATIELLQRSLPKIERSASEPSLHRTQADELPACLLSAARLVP

[3] = biological target: Putative heat shock protein HSP 90-beta 2 (Homo sapiens, UniProt Q58FF8)
Sequence of Putative heat shock protein HSP 90-beta 2 (Q58FF8 whole entry, the tested form may be a part): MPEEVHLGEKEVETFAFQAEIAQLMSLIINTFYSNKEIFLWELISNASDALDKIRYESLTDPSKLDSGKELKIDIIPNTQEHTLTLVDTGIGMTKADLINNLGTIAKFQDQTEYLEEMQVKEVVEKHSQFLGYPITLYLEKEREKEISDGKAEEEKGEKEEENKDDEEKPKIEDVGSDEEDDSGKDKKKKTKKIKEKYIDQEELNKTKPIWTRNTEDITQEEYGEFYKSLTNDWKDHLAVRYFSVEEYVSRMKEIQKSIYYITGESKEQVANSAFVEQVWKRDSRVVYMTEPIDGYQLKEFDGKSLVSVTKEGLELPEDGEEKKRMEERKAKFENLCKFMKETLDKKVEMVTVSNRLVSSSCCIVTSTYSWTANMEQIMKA

LIM domain kinase 1 = LIM domain kinase 1 (Homo sapiens, UniProt P53667)
Sequence of LIM domain kinase 1 (P53667 whole entry, the tested form may be a part): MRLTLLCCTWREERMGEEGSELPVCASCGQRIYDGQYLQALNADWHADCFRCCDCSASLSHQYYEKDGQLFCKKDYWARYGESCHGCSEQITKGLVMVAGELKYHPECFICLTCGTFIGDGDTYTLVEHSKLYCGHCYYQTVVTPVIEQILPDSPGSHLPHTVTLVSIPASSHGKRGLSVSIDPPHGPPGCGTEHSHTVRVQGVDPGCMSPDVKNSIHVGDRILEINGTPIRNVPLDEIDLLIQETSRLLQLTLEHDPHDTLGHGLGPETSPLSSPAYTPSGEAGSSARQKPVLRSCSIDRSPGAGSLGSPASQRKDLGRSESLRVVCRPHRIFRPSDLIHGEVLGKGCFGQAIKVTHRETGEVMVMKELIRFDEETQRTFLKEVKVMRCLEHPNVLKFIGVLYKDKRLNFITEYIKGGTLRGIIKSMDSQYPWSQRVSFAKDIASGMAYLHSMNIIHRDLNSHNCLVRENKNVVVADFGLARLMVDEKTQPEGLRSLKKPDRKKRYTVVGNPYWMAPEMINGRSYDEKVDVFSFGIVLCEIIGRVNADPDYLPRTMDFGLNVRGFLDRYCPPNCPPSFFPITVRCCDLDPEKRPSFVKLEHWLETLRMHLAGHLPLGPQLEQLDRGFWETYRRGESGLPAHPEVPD

[4] = biological target: Tyrosine-protein kinase Lyn (Homo sapiens, UniProt P07948)
Sequence of Tyrosine-protein kinase Lyn (P07948 whole entry): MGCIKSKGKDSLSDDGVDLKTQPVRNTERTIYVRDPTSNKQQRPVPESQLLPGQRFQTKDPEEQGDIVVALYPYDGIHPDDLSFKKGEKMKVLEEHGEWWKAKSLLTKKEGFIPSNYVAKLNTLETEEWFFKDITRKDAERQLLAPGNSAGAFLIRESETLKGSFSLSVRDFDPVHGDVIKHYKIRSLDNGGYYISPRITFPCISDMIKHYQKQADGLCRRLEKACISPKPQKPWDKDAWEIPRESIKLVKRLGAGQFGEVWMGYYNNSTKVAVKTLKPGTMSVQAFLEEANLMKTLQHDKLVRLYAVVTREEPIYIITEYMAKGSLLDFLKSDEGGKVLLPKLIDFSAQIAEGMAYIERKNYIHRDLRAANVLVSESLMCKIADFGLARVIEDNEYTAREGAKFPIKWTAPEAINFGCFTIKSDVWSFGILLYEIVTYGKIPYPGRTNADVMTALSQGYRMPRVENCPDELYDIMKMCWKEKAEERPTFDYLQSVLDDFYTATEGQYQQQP

[5] = biological target: MAP/microtubule affinity-regulating kinase 3 (Homo sapiens, UniProt P27448)
Sequence of MAP/microtubule affinity-regulating kinase 3 (P27448 whole entry, canonical isoform): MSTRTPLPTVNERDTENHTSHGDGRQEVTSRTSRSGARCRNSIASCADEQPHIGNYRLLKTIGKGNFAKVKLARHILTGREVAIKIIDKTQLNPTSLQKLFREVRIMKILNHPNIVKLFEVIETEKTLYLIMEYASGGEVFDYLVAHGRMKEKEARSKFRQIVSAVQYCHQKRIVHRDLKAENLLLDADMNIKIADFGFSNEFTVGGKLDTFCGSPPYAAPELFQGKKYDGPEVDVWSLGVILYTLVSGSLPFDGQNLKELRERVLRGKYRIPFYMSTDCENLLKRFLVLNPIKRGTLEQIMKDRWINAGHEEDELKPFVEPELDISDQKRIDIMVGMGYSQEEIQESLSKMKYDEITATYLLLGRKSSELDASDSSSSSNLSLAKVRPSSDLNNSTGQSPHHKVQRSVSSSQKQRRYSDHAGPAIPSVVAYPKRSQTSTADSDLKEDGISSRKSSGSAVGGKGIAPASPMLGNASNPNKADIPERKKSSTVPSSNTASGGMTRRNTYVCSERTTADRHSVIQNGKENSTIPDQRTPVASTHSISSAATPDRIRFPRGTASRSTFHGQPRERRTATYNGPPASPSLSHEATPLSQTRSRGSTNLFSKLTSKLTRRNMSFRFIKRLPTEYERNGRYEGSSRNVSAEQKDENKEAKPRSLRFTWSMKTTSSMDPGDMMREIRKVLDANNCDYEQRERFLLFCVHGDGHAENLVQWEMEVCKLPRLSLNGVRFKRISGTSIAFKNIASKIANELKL

[6] = biological target: T3, Phosphorylase b kinase gamma catalytic chain, liver/testis isoform (Homo sapiens, UniProt P15735)
T3 sequence (P15735 whole entry): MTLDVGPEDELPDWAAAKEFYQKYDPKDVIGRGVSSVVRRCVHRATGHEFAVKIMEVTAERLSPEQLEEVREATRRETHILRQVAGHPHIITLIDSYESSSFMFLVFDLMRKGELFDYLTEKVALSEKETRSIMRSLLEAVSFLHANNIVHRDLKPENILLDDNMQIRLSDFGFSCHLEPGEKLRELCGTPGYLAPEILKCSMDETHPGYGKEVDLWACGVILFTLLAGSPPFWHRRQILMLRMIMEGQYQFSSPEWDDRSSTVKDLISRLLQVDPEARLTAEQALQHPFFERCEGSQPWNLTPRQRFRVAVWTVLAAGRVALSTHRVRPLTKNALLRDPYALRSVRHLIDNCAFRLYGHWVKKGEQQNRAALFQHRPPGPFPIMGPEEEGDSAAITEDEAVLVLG

[7] = biological target: T4, Phosphatidylinositol 5-phosphate 4-kinase type-2 alpha (Homo sapiens, UniProt P48426)
T4 sequence (P48426 whole entry): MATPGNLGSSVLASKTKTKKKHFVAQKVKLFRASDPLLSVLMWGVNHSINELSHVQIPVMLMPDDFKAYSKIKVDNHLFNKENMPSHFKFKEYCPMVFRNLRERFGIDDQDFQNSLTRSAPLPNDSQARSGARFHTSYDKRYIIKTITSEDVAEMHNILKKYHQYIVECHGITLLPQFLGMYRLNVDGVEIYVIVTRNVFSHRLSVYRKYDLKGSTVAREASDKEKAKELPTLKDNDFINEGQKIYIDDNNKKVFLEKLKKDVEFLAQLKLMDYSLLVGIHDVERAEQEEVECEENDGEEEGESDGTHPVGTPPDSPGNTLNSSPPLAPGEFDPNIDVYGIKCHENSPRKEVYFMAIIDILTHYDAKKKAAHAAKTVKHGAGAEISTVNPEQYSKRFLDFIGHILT
Also: in the data inactive means no Kd found up to 30 µM.

Compound	Kd [1]	Kd [2]	Kd [3]	Kd (LIM domain kinase 1)	Kd [4]	Kd [5]	Kd [6]	Kd [7]
Cc1c(NC(=O)OC[C@@H]2COCCN2)cn2ncnc(Nc3ccc4c(cnn4Cc4cccc(F)c4)c3)c12 [AC-480]	> 30 µM (inactive)	> 30 µM (inactive)	> 30 µM (inactive)	> 30 µM (inactive)	> 30 µM (inactive)	> 30 µM (inactive)	> 30 µM (inactive)	–
C=CCn1c(=O)c2cnc(Nc3ccc(N4CCN(C)CC4)cc3)nc2n1-c1cccc(C(C)(C)O)n1 [ADAVOSERTIB]	> 30 µM (inactive)	> 30 µM (inactive)	> 30 µM (inactive)	–	> 30 µM (inactive)	> 30 µM (inactive)	> 30 µM (inactive)	–
CN(C)C/C=C/C(=O)Nc1cc2c(Nc3ccc(F)c(Cl)c3)ncnc2cc1O[C@H]1CCOC1 [AFATINIB]	> 30 µM (inactive)	> 30 µM (inactive)	> 30 µM (inactive)	–	–	–	–	> 30 µM (inactive)
CCN(CCCOc1ccc2c(Nc3cc(CC(=O)Nc4cccc(F)c4)n[nH]3)ncnc2c1)CCOP(=O)(O)O [BARASERTIB]	> 30 µM (inactive)	–	> 30 µM (inactive)	–	3.63 µM (active)	–	> 30 µM (inactive)	> 30 µM (inactive)
COc1ccc(-c2ccc3ncc4c(c3c2)n(-c2ccc(N3CCNCC3)c(C(F)(F)F)c2)c(=O)n4C)cn1 [BGT-226 FREE BASE]	> 30 µM (inactive)	> 30 µM (inactive)	> 30 µM (inactive)	> 30 µM (inactive)	> 30 µM (inactive)	> 30 µM (inactive)	> 30 µM (inactive)	–
COc1cc2c(Oc3ccc4[nH]c(C)cc4c3F)ncnc2cc1OCCCN1CCCC1 [CEDIRANIB]	> 30 µM (inactive)	> 30 µM (inactive)	> 30 µM (inactive)	–	–	–	–	> 30 µM (inactive)
C#Cc1cccc(Nc2ncnc3cc4c(cc23)OCCOCCOCCO4)c1 [ICOTINIB]	> 30 µM (inactive)	> 30 µM (inactive)	> 30 µM (inactive)	> 30 µM (inactive)	> 30 µM (inactive)	> 30 µM (inactive)	> 30 µM (inactive)	–
CC1(C)CNc2cc(NC(=O)c3cccnc3NCc3ccncc3)ccc21 [MOTESANIB]	> 30 µM (inactive)	> 30 µM (inactive)	> 30 µM (inactive)	–	–	–	–	> 30 µM (inactive)
CN(c1ncccc1CNc1nc(Nc2ccc3c(c2)CC(=O)N3)ncc1C(F)(F)F)S(C)(=O)=O [PF-00562271]	> 30 µM (inactive)	> 30 µM (inactive)	> 30 µM (inactive)	–	–	–	–	> 30 µM (inactive)
CC(C)CC(=O)Nc1[nH]nc2c1CN(C(=O)C1CCN(C)CC1)C2(C)C [PHA-793887]	> 30 µM (inactive)	> 30 µM (inactive)	> 30 µM (inactive)	> 30 µM (inactive)	> 30 µM (inactive)	> 30 µM (inactive)	1 µM (active)	–
O=C(NC[C@H](O)CO)c1ccncc1Nc1ccc(I)cc1F [PIMASERTIB]	> 30 µM (inactive)	> 30 µM (inactive)	> 30 µM (inactive)	> 30 µM (inactive)	> 30 µM (inactive)	> 30 µM (inactive)	> 30 µM (inactive)	–
C=CC(=O)Nc1cccc(Nc2nc(Nc3ccc(N4CCN(C(C)=O)CC4)cc3OC)ncc2C(F)(F)F)c1 [ROCILETINIB]	> 30 µM (inactive)	> 30 µM (inactive)	> 30 µM (inactive)	> 30 µM (inactive)	> 30 µM (inactive)	> 30 µM (inactive)	> 30 µM (inactive)	–
Cn1cnc2c(F)c(Nc3ccc(Br)cc3Cl)c(C(=O)NOCCO)cc21 [SELUMETINIB]	> 30 µM (inactive)	> 30 µM (inactive)	> 30 µM (inactive)	–	–	–	–	> 30 µM (inactive)
O=C(O)c1ccc2c(c1)nc(Nc1cccc(Cl)c1)c1ccncc12 [SILMITASERTIB]	> 30 µM (inactive)	> 30 µM (inactive)	> 30 µM (inactive)	> 30 µM (inactive)	> 30 µM (inactive)	> 30 µM (inactive)	3.5 µM (active)	–
C=CCN(/C=C1/C(=O)O[C@H](COC)[C@@]2(C)C1=C(O)C(=O)C1=C2[C@H](OC(C)=O)C[C@]2(C)C(=O)CC[C@@H]12)CC=C [SONOLISIB]	> 30 µM (inactive)	> 30 µM (inactive)	> 30 µM (inactive)	> 30 µM (inactive)	> 30 µM (inactive)	> 30 µM (inactive)	> 30 µM (inactive)	–
CN1CCN(c2nc(C3=C(c4c[nH]c5ccccc45)C(=O)NC3=O)c3ccccc3n2)CC1 [SOTRASTAURIN]	> 30 µM (inactive)	> 30 µM (inactive)	> 30 µM (inactive)	> 30 µM (inactive)	> 30 µM (inactive)	> 30 µM (inactive)	> 30 µM (inactive)	–
COc1cc2c(N3CCN(C(=O)Nc4ccc(OC(C)C)cc4)CC3)ncnc2cc1OCCCN1CCCCC1 [TANDUTINIB]	> 30 µM (inactive)	> 30 µM (inactive)	> 30 µM (inactive)	–	–	–	–	> 30 µM (inactive)
CNC(=O)c1cc(COc2nnc(Nc3ccc(Cl)cc3)c3ccoc23)ccn1 [TELATINIB]	> 30 µM (inactive)	> 30 µM (inactive)	> 30 µM (inactive)	> 30 µM (inactive)	> 30 µM (inactive)	> 30 µM (inactive)	> 30 µM (inactive)	–

Further lines, results first:

Kd [1]	Kd [2]	Kd [3]	Kd (LIM domain kinase 1)	Kd [4]	Kd [5]	Kd [6]	Kd [7]	Compound
> 30 µM (inactive)	> 30 µM (inactive)	> 30 µM (inactive)	–	–	–	–	> 30 µM (inactive)	C[C@@]1(C(=O)Nc2ccc(F)nc2)CCCN1c1nc(Nc2cc(C3CC3)n[nH]2)c2cccn2n1 [BMS-754807]
> 30 µM (inactive)	> 30 µM (inactive)	> 30 µM (inactive)	> 30 µM (inactive)	> 30 µM (inactive)	> 30 µM (inactive)	> 30 µM (inactive)	–	COc1cc2ncnc3c2cc1OCCCCCN(C)Cc1ccc(Br)cc1N3 [JNJ-26483327]
–	> 30 µM (inactive)	> 30 µM (inactive)	> 30 µM (inactive)	> 30 µM (inactive)	> 30 µM (inactive)	> 30 µM (inactive)	–	CC(C)(O)CC(=O)NCCn1ccc2ncnc(Nc3ccc(Oc4cccc(C(F)(F)F)c4)c(Cl)c3)c21 [TAK-285]
